Tests used:
human podocyte cell line = experiment: TGFβ-induced apoptosis in human podocyte cell line (Cell Death Detection ELISA); type: cell-based
Method: The percentage of the apoptotic cells was determined after 24 hours using the Cell Death Detection ELISA (Roche Diagnostics, Mannheim, Germany) according to the manufaturer's protocol.

MM cells = experiment: Proliferation assay (CellTiter-Glo), concentration of 50% growth inhibition; type: cell-based; conditions: Homo sapiens; read-out: Concentration at which 50% cell growth inhibition was observed
Method: Human MM cell lines used were as follows: NCI-H929, OPM-2, LP-1, RPMI-8226, U266 (DSMZ, Braunschweig, Germany). Cell lines were cultured in RPMI 1640 medium (Biochrom, Berlin, Germany) supplemented with 10% heat-inactivated fetal calf serum (FCS, Gibco, Karlsruhe, Germany), 1 mM sodium pyruvate and 100 units/ml penicillin and 100 μg/ml streptomycin (Gibco). Human osteoclasts were obtained as described in the reference of Zavrski I, Krebbel H, Wildemann B, et al. Proteasome inhibitors abrogate osteoclast differentiation and osteoclast function. Biochem Biophys Res Commun. 2005; 333:200-205. Briefly, peripheral blood mononuclear cells (PBMC) were isolated from whole blood of healthy volunteers, using a Ficoll-Hypaque density gradient. The adherent fraction of the isolated mononuclear cells was cultured for 21 days in MEM medium (Sigma-Aldrich Chemie, Taufkirchen, Germany) supplemented with 10% FCS, 100 U/ml penicillin, 100 μg/ml streptomycin, 50 ng/ml M-CSF, and 25 ng/ml RANKL (osteoclastogenic medium), before coculture experiments and treatment with the inventive compounds started. Human osteoblasts were obtained according to Robey P G, Termine J D. Human bone cells in vitro. Calcif Tissue Int. 1985; 37:453-460 as described in Hecht M, Heider U, Kaiser M, von Metzler I, Sterz J, Sezer O. Osteoblasts promote migration and invasion of myeloma cells through upregulation of matrix metalloproteinases, urokinase plasminogen activator, hepatocyte growth factor and activation of p38 MAPK. Br J Haematol. 2007; 138: 446-458. Briefly, trabecular bone specimens from patients without malignant disease undergoing knee or hip surgery were minced and washed to remove bone marrow cells. The bone fragments were resuspended in Dulbecco's modified Eagle's medium (DMEM)/HAM's F12 medium (Biochrom, Berlin, Germany) supplemented with 10% FCS and cultured in tissue culture flasks until a confluent cell monolayer was obtained. Culturing of functional osteoblasts was confirmed by alkaline phosphatase (ALP) staining (kit from Sigma, USA), realtime RT-PCR analysis of expression of osteoblast markers (ALP, osteocalcin) and by von-Kossa staining before coculture and treatment experiments were started.
The compound according to example 1, hereinafter referred to as GSI15, (compound RH02015SC, Maybridge, Acros Organics, Geel, Belgium) was freshly dissolved as 26 mM stock solution in Dimethylsulfoxide (DMSO). Multiple myeloma therapeutics used were melphalan (marketed as Alkeran®, GlaxoSmithKline, Munich, Germany) and bortezomib (marketed as Velcade®, Janssen-Cilag, Neuss, Germany). Melphalan was freshly dissolved at 10 mg/ml in 0.9% NaCl-solution. Bortezomib was freshly dissolved at 100 ng/ml in 0.9% NaCl solution. Gamma Secretase Inhibitor (GSI) treatment for apoptosis assessment by AnnexinV/PI staining, cell cycle analysis and coculture experiments was performed in 6-well plates. GSI15 stock solution was added directly to the cell suspension. GSI treatment for assaying proliferation was performed in 96-well plates. 10,000 cells per well were seeded in 50 μl medium per well before 50 μl of a 2× solution of GSI15 prediluted in medium were added per well. […]
For assaying proliferation/viability of cells CellTiter-Glo Luminescent Cell Viability Assay (Promega, Mannheim, Germany) was used. In this assay the number of viable cells at a given time point is determined by quantification of ATP present, which serves as a measure of metabolically active cells. […]

OPM-2 cells = experiment: Apoptosis by AnnexinV-FITC/PI staining, OPM-2; type: cell-based, human; conditions: for cell death: OPM-2, 24 h or 48 h, single agent
Method: The compound according to example 1, hereinafter referred to as GSI15, (compound RH02015SC, Maybridge, Acros Organics, Geel, Belgium) was freshly dissolved as 26 mM stock solution in Dimethylsulfoxide (DMSO). Multiple myeloma therapeutics used were melphalan (marketed as Alkeran®, GlaxoSmithKline, Munich, Germany) and bortezomib (marketed as Velcade®, Janssen-Cilag, Neuss, Germany). Melphalan was freshly dissolved at 10 mg/ml in 0.9% NaCl-solution. Bortezomib was freshly dissolved at 100 ng/ml in 0.9% NaCl solution. Gamma Secretase Inhibitor (GSI) treatment for apoptosis assessment by AnnexinV/PI staining, cell cycle analysis and coculture experiments was performed in 6-well plates. GSI15 stock solution was added directly to the cell suspension. GSI treatment for assaying proliferation was performed in 96-well plates. 10,000 cells per well were seeded in 50 μl medium per well before 50 μl of a 2× solution of GSI15 prediluted in medium were added per well. Melphalan and bortezomib treatment as well as their combination with GSI15 for assaying apoptosis by AnnexinV/PI staining was done in 6-well plates. All inhibitors were added directly to the cells in 6-well plates.
For cell cycle analysis 2×10^5 cells were spun down, medium was aspirated and cells washed with PBS. Cells were then resuspended in 250 μl PBS. 1 ml ice-cold 70% ethanol was added, followed by overnight incubation at −20° C. Cells were spun down, the pellet washed with PBS and then resuspended in 200 μl PBS containing 0.15 mg/ml RNaseA and 30 μg/ml propidium iodide (PI). After 10 minutes incubation in the dark at room temperature, cells were analyzed by flow cytometry. The amount of apoptotic cells was determined by AnnexinV/propidium iodide staining using Human AnnexinV-FITC Kit (Bender Medsystems, Vienna, Austria), according to manufacturer's protocol. Briefly, 2×10^5 cells were spun down and washed with PBS, followed by 10 minutes incubation in binding buffer containing AnnexinV-FITC conjugate. Cells were then spun down again, resuspended in binding buffer containing PI and analyzed by flow cytometry.

male Sprague-Dawley rats = experiment: PAN-model of albuminuric glomerular disease; type: in vivo, rat; conditions: day 5, 500 μg/100 g rat i.p. once per day, compared to PAN alone
Method: For the in vivo studies male Sprague-Dawley rats were purchased from Charles River and treated with puromycin aminoglycoside (PAN) to induce albuminuric glomerular disease as described previously (Niranjan et al., “The Notch pathway in podocytes plays a role in the development of glomerular disease.” Nat. Med. 14: 290-298, 2008). Rats were injected PAN (150 mg/kg) once. The test compounds were administered intraperitoneally (500 μg/100 g rat) once per day (n=4 animals per group). Injection of test compounds were started one day after PAN injection. All studies were performed in accordance with the European Union normative. As a positive control one group of rats received gamma secretase inhibitor DAPT.
Urinary albumine was measured at the indicated days as described previously (Sanchez-Nino et al., “The MIF receptor CD74 in diabetic podocyte injury”. J. Am. Soc. Nephrol. 20: 353-362, 2009). For total protein measurement urine samples were centrifuged and pellets were diluted in distilled water. Exton reagent (230 mM sulfosalic acid, 1.4 M sodium sulfate) was added and after 10 minutes absorbance was measured at 620 nm.

## C[C@H](NC(=O)Cc1cc(F)cc(F)c1)C(=O)N[C@H](C(=O)OC(C)(C)C)c1ccccc1 [DAPT, reference compound]
Human podocyte cell line; 1 μM, compared to TGFβ alone, 24 hours
  inhibition of apoptosis: 37%

## CC(Sc1nc(=O)cc(N)n1CCc1ccccc1)C(=O)Nc1cccc(Cl)c1 (stereo not shown) [Example 4, 2-(6-amino-4-oxo-1-phenethyl-1,4-dihydropyrimidin-2-ylthio)-N-(3-chlorophenyl)propanamide]
MM cells
  IC50: 20 µM

## N[C@@H](Cc1ccc(N(CCCl)CCCl)cc1)C(=O)O [melphalan]
OPM-2 cells; OPM-2, 50 μM melphalan alone, 24 h
  apoptotic cells: 32%
OPM-2 cells
  cell death: dose-dependently triggered cell death

## Nc1cc(=O)nc(SCC(=O)Nc2ccc(Cl)cc2)n1CCc1ccccc1 [Example 5, 2-(6-amino-4-oxo-1-phenethyl-1,4-dihydropyrimidin-2-ylthio)-N-(4-chlorophenyl)acetamide]
MM cells
  IC50: 20 µM

## CC(C)(C)c1ccc(Oc2ncccc2NS(=O)(=O)c2ccccc2C(F)(F)F)cc1 [Example 2, N-(2-(4-tert-butylphenoxy)pyridin-3-yl)-2-(trifluoromethyl)benzenesulfonamide]
MM cells
  IC50: 30 µM
Human podocyte cell line
  effect in podocyte cell culture experiments: positive effect
Human podocyte cell line; Homo sapiens, 3 μM, compared to TGFβ alone, 24 hours
  inhibition at 3 µM: 27%
Human podocyte cell line; Homo sapiens, 10 μM, compared to TGFβ alone, 24 hours
  inhibition at 10 µM: 27%
Male Sprague-Dawley rats
  inhibition of albuminuria: 42%
  inhibition of proteinuria: 37%

## Cc1ccc(Sc2ncccc2NS(=O)(=O)c2ccc(Cl)cc2)cc1 [Example 3, 4-chloro-N-(2-(p-tolylthio)pyridin-3-yl)benzenesulfonamide]
MM cells
  IC50: 30 µM

## CC(C)C[C@H](NC(=O)[C@H](Cc1ccccc1)NC(=O)c1cnccn1)B(O)O [bortezomib]
OPM-2 cells
  cell death: dose-dependently triggered cell death

From patent US20110251220A1, “Pharmaceutical compositions comprising gamma secretase modulators” (priority 2008, published 2011)
